In paper PMC4472782, “Antibacterial Characterization of Novel Synthetic Thiazole Compounds against Methicillin-Resistant Staphylococcus pseudintermedius” (PLoS ONE, 2015):
Converted amounts (≈) assume the structure as drawn. Structures can show the parent of a compound that is named as a salt. Where two headings read alike, the source gives them in different places.

Assays:
[1] = system: methicillin-sensitive Staphylococcus pseudintermedius; assay: MIC by broth microdilution against MSSP clinical isolates; type: cell-based; settings: for MIC50: lowest concentration inhibiting growth in 50% of isolates; for MIC: read-out: MIC Range
Procedure: (§1) Fifteen isolates of S. pseudintermedius (nine MSSP and six MRSP), identified at the Indiana Animal Disease Diagnostic Laboratory from specimens collected from dogs admitted to the small animal teaching hospital at Purdue University, were included in the study. The specimens were not collected specifically for this research study but were obtained from patients admitted to the hospital for treatment. Clinical specimens were inoculated onto 5% sheep blood agar and incubated at 35°C for 18–24 hours. Standard methods including examination of colony morphology and hemolysis and biochemical tests such as tube coagulase, Voges-Proskauer (VP) and fermentation tests for maltose, trehalose and lactose, were used in addition to matrix-assisted laser desorption ionization time of flight mass spectrometry to identify isolates. Antimicrobial susceptibility was determined by broth microdilution using the SensiTitre (Thermofisher Scientific).
(§2) Bacteria were prepared in phosphate-buffered saline (PBS) until a McFarland standard of 0.5 was achieved. The solution was subsequently diluted 1:300 in Mueller-Hinton broth (MHB) to reach a starting inoculum of 1 × 10^5 colony-forming units (CFU/mL). Bacteria were then transferred to a 96-well microtiter plate. Thiazole compounds and antibiotics were added (in triplicate) to wells in the first row of the microtiter plate and then serially diluted along the vertical axis. […] The MIC was categorized as the concentration where there was no visible growth of bacteria observed.

[2] = system: methicillin-resistant Staphylococcus pseudintermedius; assay: MIC by broth microdilution against MRSP clinical isolates; type: cell-based; settings: for MIC50: Staphylococcus pseudintermedius
Procedure: as §1, §2

[3] = system: methicillin-sensitive Staphylococcus pseudintermedius; assay: MBC determination against MSSP clinical isolates; type: cell-based; settings: nine MSSP isolates; for MBC: Staphylococcus pseudintermedius, lowest concentration that killed 50% of isolates, read-out: MBC50
Procedure: (§3) The MBC was determined by plating 5 μL from wells on the 96-well microtiter plate (where the MIC was determined) where no growth was observed onto Tryptic soy agar (TSA) plates. […] The MBC was categorized as the concentration where ≥99% reduction in bacterial cell count was observed.

[4] = system: methicillin-resistant Staphylococcus pseudintermedius; assay: MBC determination against MRSP clinical isolates; type: cell-based; settings: for MBC: Staphylococcus pseudintermedius, read-out: MBC50
Procedure: as §3

MRSP SP3 [5] = assay: Post-antibiotic effect against MRSP; type: cell-based, Staphylococcus pseudintermedius; settings: 4 × MIC for one hour
Procedure: A tube containing untreated bacterial cells served as a control. Afterward, the compound/antibiotic was washed out by diluting bacteria 1:1000 in MHB. Counts of CFU for all cultures were obtained after washing. Aliquots (100 μL) of bacteria were removed every hour (for 10 hours), serially diluted in PBS, and plated on TSA plates. TSA plates were incubated for 20 hours at 37°C before CFU values were determined.

MRSP SP3 [6] = assay: Time-kill analysis against MRSP; type: cell-based, Staphylococcus pseudintermedius; settings: 4 × MIC; for time required to completely eliminate MRSP: MRSP SP3, 24 hour incubation at 37°C
Procedure: MRSP SP3 cells in late logarithmic growth phase were diluted to ~1 × 10^6 CFU/mL and exposed to concentrations equivalent to 4 × MIC (in triplicate) of thiazole compounds 1–6 and rifampicin in MHB. Samples (20 μL) were collected after 0, 2, 4, 6, 8, 10, 12, and 24 hours of incubation at 37°C and subsequently serially diluted in PBS. Bacteria were then transferred to TSA plates and incubated at 37°C for 20–24 hours before viable CFU/mL values were determined.

[7] = system: murine macrophage cell line (J774.A1); assay: In vitro cytotoxicity analysis (MTS assay); type: cell-based; settings: 10 μg/mL, J774.A1, two hours
Procedure: Compounds were assayed at concentrations of 5 μg/mL, 10 μg/mL, 20 μg/mL, and 40 μg/mL against a murine macrophage cell line (J774.A1) (ATCC TIB-67, American Type Culture Collection (ATCC), Manassas, VA, USA) to determine the potential toxic effect in vitro. Cells were cultured in Dulbeco’s modified Eagle’s medium (Sigma-Aldrich, St. Louis, MO, USA) with 10% fetal bovine serum (USA Scientific, Inc.) at 37°C with 5% CO2. Controls received DMSO alone at a concentration equal to that in drug-treated cell samples. The cells were incubated with the compounds in a 96-well plate at 37°C and 5.0% CO2 for two hours prior to addition of the assay reagent MTS 3-(4,5-dimethylthiazol-2-yl)-5-(3-carboxymethoxyphenyl)-2-(4-sulfophenyl)-2H-tetrazolium) (Promega, Madison, WI, USA). Absorbance readings were taken using a kinetic ELISA microplate reader (Molecular Devices, Sunnyvale, CA, USA). The quantity of viable cells after treatment with each compound was expressed as a percentage of the control, DMSO.
(§4) All statistical analyses were performed with GraphPad Prism 6.0 (GraphPad Software, La Jolla, CA). Data generated from cytotoxicity analysis of the thiazole compounds against J774.A1 cells and the 260 and 280 nm cell leakage analysis were analyzed using one-way ANOVA, with post hoc Tukey's multiple comparisons test (P < 0.05).

MRSP (SP3) = assay: Multi-step resistance selection; type: cell-based, Staphylococcus pseudintermedius; settings: for shift in the MIC over ten passages: MRSP SP3, ten serial passages; for MIC: Staphylococcus pseudintermedius
Procedure: To assess the ability of MRSP to develop resistance to the thiazole compounds, a multi-step resistance selection experiment was performed, as described elsewhere. The broth microdilution method for MIC determination against a clinical isolate of MRSP (SP3) was repeated for ten passages over a period of ten days. The initial inoculum was prepared to a McFarland standard of 0.5. The solution was subsequently diluted 1:300 in MHB to reach a starting inoculum of 1 × 10^5 CFU/mL. For each subsequent passage, the inoculum for the MIC determination was adjusted to a final density of approximately 5 × 10^5 CFU/mL using the contents of a well containing a subinhibitory concentration of the compound (where bacterial growth was observed from the previous passage). Bacteria were then transferred to a new 96-well microtiter plate.

MRSP SP3 [8] = assay: Checkerboard assay of thiazole compounds with oxacillin; type: cell-based, Staphylococcus pseudintermedius; settings: for ƩFIC: combination with oxacillin, ≤ 0.5 synergistic, > 0.5 to ≤ 4.0 indifference, > 4 antagonistic; for relationship with oxacillin: checkerboard assay
Procedure: The relationship between the thiazole compounds and oxacillin was assessed via a standard checkerboard assay. Bacteria (MRSP SP3) equivalent to a McFarland standard of 0.5 were prepared in PBS. The bacteria were next diluted in MHB to achieve a starting cell density of 1 × 10^5 CFU/mL. MHB was transferred to all wells of a 96-well microtiter plate. […] Oxacillin was serially diluted along the abscissa of the microtiter plate while the thiazole compound was serially diluted along the ordinate. The plate was incubated for 22–24 hours at 37°C. The MIC of the test compound in combination with oxacillin was determined as the lowest concentration of each compound/antibiotic where no visible growth of bacteria was observed. The fractional inhibitory concentration index (ƩFIC) was calculated for each combination as described previously. A synergistic relationship was classified as an FIC index less than or equal to 0.5. […]

MRSP SP3 [9] = assay: Cell membrane disruption (260/280 nm cell leakage) analysis; type: cell-based, Staphylococcus pseudintermedius; settings: MRSP SP3, 30 minutes; one-way ANOVA, Tukey, P ≤ 0.05
Procedure: In order to investigate the antimicrobial effect of the thiazole compounds on the integrity of the bacterial cell membrane, the release of 260 and 280 nm absorbing components was determined spectrophotometrically. […] Untreated MRSP SP3 cells or cells treated with vancomycin (inhibits cell wall synthesis in bacterial cells) served as negative controls. For the release of 260 and 280 nm absorbing material, the bacterial suspension (control) was treated with lysostaphin (in 50 mM Tris-HCl, pH 8.00) for 30 minutes. Lysostaphin was used as a positive control due to its mode of action being the disruption of the cross-linking of the pentaglycin bridges in the cell wall of staphylococci bacteria. The absorbance of cell supernatant at 260 and 280 nm was determined using a spectrophotometer (Jenway 6305). The average OD260 and OD280 values of duplicates of each treatment option were calculated and expressed as the proportion of average OD260 (or OD280) for each treatment option compared to the average OD260 (or OD280) for the positive control (lysostaphin).
as §4

[10] = six MRSP isolates, triplicate, read-out: MIC50

Row | Structure (SMILES) | MIC50 ([1]; nine MSSP isolates, triplicate) | MIC ([1]; nine MSSP isolates, triplicate) | MIC50 [2, 10] | MBC [3] | MBC ([4]; six MRSP isolates) | Post-antibiotic Effect (MRSP SP3 [5]) | MIC Range ([2]; six MRSP isolates, triplicate) | MBC Range [3] | time required to completely eliminate MRSP (MRSP SP3 [6]) | toxicity to murine macrophage cells (MTS assay) [7] | shift in the MIC over ten passages (MRSP (SP3)) | MIC (MRSP (SP3); read-out: initial MIC) | ƩFIC (MRSP SP3 [8]) | MBC Range ([4]; six MRSP isolates) | relationship with oxacillin (MRSP SP3 [8]) | further results
1 | CCC[C@@H]1C[C@@H](C(=O)N[C@@H]([C@H]2O[C@H](SC)[C@H](O)[C@@H](O)[C@H]2O)[C@H](C)Cl)N(C)C1 [Clindamycin, Clindamycin hydrochloride monohydrate, reference compound] | 0.48 µg/mL | 0.24 to 61.4 µg/mL | 0.48 µg/mL | 0.48 µg/mL | 30.7 µg/mL | 2 h | – | – | – | – | – | – | – | – | – | Post-antibiotic Effect (MRSP SP3 [5]; listed as clindamycin): two hours
2 | C/C(=N\NC(=N)N)c1sc(-c2ccc(-c3ccc(F)cc3)cc2)nc1C [Compound 4] | 0.73 µg/mL (≈ 1.99 µM) | 0.18 to 2.94 µg/mL (≈ 0.49 to 8 µM) | – | 1.1 µg/mL (≈ 2.99 µM) | – | >9 h | 0.37 to 1.47 µg/mL | 0.18 to 2.94 µg/mL | 12 h | not toxic | two-fold increase | 1.47 µg/mL (≈ 4 µM) | 0.63 | – | – | MIC50 [2]: 1.47 µg/mL (≈ 4 µM); MBC [4]: 1.47 µg/mL (≈ 4 µM)
3 | C/C(=N\NC(=N)N)c1sc(-c2ccc(-c3ccc(C(F)(F)F)cc3)cc2)nc1C [Compound 5] | 0.42 µg/mL (≈ 1.01 µM) | – | 0.42 µg/mL (≈ 1.01 µM) | 0.42 µg/mL (≈ 1.01 µM) | 0.42 µg/mL (≈ 1.01 µM) | 8 h | 0.21 to 1.67 µg/mL | 0.21 to 6.67 µg/mL | eight hours | not toxic | two-fold increase | 1.67 µg/mL (≈ 4 µM) | 0.38 | 0.21 to 3.34 µg/mL | synergistic | MIC [1]: 0.21 to 1.67 µg/mL (≈ 0.503 to 4 µM); MIC (MRSP (SP3); read-out: MIC after the second serial passage (stable until the seventh passage)): 3.34 µg/mL (≈ 8 µM); MIC (MRSP (SP3); read-out: MIC at the seventh passage): 6.68 µg/mL (≈ 16 µM)
4 | C/C(=N\NC(=N)N)c1sc(-c2ccc(-c3cccc4ccccc34)cc2)nc1C [Compound 6] | 0.8 µg/mL (≈ 2 µM) | 0.2 to 1.6 µg/mL (≈ 0.501 to 4 µM) | 0.4 µg/mL (≈ 1 µM) | 1.06 µg/mL (≈ 2.65 µM) | 0.8 µg/mL (≈ 2 µM) | >9 h | 0.20 to 1.60 µg/mL | 0.20 to 3.19 µg/mL | within two hours | toxic | four-fold increase | 1.6 µg/mL (≈ 4 µM) | 0.38 | 0.20 to 1.60 µg/mL | synergistic | –
5 | CO[C@H]1/C=C/O[C@@]2(C)Oc3c(C)c(O)c4c(O)c(c(/C=N/N5CCN(C)CC5)c(O)c4c3C2=O)NC(=O)/C(C)=C\C=C\[C@H](C)[C@H](O)[C@@H](C)[C@@H](O)[C@@H](C)[C@H](OC(C)=O)[C@@H]1C [Rifampicin, rifampicin, reference compound] | < 0.41 µg/mL | < 0.41 µg/mL | < 0.41 µg/mL | < 0.41 µg/mL | < 0.41 µg/mL | >9 h | <0.41 µg/mL | <0.41 µg/mL | – | – | – | – | – | <0.41 µg/mL | – | time-kill behaviour (in words) (MRSP SP3 [6]; MRSP SP3): slow bactericidal activity against MRSP SP3 within the first eight hours of the assay before rapid bacterial re-growth; Post-antibiotic Effect (MRSP SP3 [5]; listed as rifampicin): > 9 h
6 | CN[C@H](CC(C)C)C(=O)N[C@H]1C(=O)N[C@@H](CC(N)=O)C(=O)N[C@H]2C(=O)N[C@H]3C(=O)N[C@H](C(=O)N[C@H](C(=O)O)c4cc(O)cc(O)c4-c4cc3ccc4O)[C@H](O)c3ccc(c(Cl)c3)Oc3cc2cc(c3O[C@@H]2O[C@H](CO)[C@@H](O)[C@H](O)[C@H]2O[C@H]2C[C@](C)(N)[C@H](O)[C@H](C)O2)Oc2ccc(cc2Cl)[C@H]1O [vancomycin, vancomycin hydrochloride, reference compound] | – | – | – | – | – | – | – | – | – | – | – | – | – | – | – | absorbance (260 and 280 nm leakage) compared with untreated cells, statistical result (MRSP SP3 [9]): no statistical difference
